Experimental data taken from US20050267158A1, “Polymorphic and amorphous forms of 2,5-dimethyl-2H-pyrazole-3-carboxylic acid {2-fluoro-5-[3-((E)-2 pyridin-2-YL-vinyl)-1H-indazol-6-ylamino]-phenyl}-amide” (AGOURON PHARMACEUTICALS, INC., priority 2004, published 2005).
≈ marks a conversion by molar mass, not a printed value. Each block holds one compound with its values, some of them ahead of it.

Key:
Assay type in all cases: physicochemical
[1] = Physical and chemical storage stability
Text: (§1) The present invention provides several polymorph crystalline forms and an amorphous form of the compound of Formula I. Each crystalline or amorphous form of the compound can be characterized by one or more of the following: X-ray powder diffraction pattern (i.e., X-ray diffraction peaks at various diffraction angles (2θ)), melting point onset (and onset of dehydration for hydrated forms) as illustrated by endotherms of a Differential Scanning Calorimetry (DSC) thermogram, Raman spectral diagram pattern, aqueous solubility, light stability under International Conference on Harmonization (ICH) high intensity light conditions, and physical and chemical storage stability.

[2] = Light stability under ICH high intensity light conditions
Text: as §1

Aqueous solubility = settings: for solubility: thermodynamic from solid
Text: as §1

[3] = Hygroscopicity / form conversion under ambient humidity; settings: for conversion of solid form: ambient humidity
[4] = aqueous medium, pH 2, pH 2, aqueous buffer, pH 2

Compound: Cc1cc(C(=O)Nc2cc(Nc3ccc4c(/C=C/c5ccccn5)n[nH]c4c3)ccc2F)n(C)n1 [Form I, 2,5-Dimethyl-2H-pyrazole-3-carboxylic acid {2-fluoro-5-[3-((E)-2-pyridin-2-yl-vinyl)-1H-indazol-6-ylamino]-phenyl}-amide]
time chemically stable ([1]; 80° C. and 40° C./75% RH): at least 14 days
light stability [2]: light-stable
solubility (Aqueous solubility; aqueous medium (pH 7.4), pH 7.4, aqueous buffer, pH 7.4): ~0.4 µg/mL (≈ 0.856 µM)
solubility (Aqueous solubility; [4]): ~39 µg/mL (≈ 83.4 µM)

Compound: Cc1cc(C(=O)Nc2cc(Nc3ccc4c(/C=C/c5ccccn5)n[nH]c4c3)ccc2F)n(C)n1 [Form II, 2,5-Dimethyl-2H-pyrazole-3-carboxylic acid {2-fluoro-5-[3-((E)-2-pyridin-2-yl-vinyl)-1H-indazol-6-ylamino]-phenyl}-amide]
light stability [2]: light-stable
solubility (Aqueous solubility; aqueous medium at pH 2, pH 2, aqueous buffer, pH 2): ~19 µg/mL (≈ 40.6 µM)
solubility (Aqueous solubility; aqueous medium at pH 7.4, pH 7.4, aqueous buffer, pH 7.4): ~0.7 µg/mL (≈ 1.5 µM)

Compound: Cc1cc(C(=O)Nc2cc(Nc3ccc4c(/C=C/c5ccccn5)n[nH]c4c3)ccc2F)n(C)n1 [Form III, 2,5-Dimethyl-2H-pyrazole-3-carboxylic acid {2-fluoro-5-[3-((E)-2-pyridin-2-yl-vinyl)-1H-indazol-6-ylamino]-phenyl}-amide]
light stability [2]: light-stable
aqueous solubility (Aqueous solubility; pH 2): about 10 μg/mL
aqueous solubility (Aqueous solubility; pH 7.4): about 0.6 μg/mL

Compound: Cc1cc(C(=O)Nc2cc(Nc3ccc4c(/C=C/c5ccccn5)n[nH]c4c3)ccc2F)n(C)n1 [Form Ib, 2,5-Dimethyl-2H-pyrazole-3-carboxylic acid {2-fluoro-5-[3-((E)-2-pyridin-2-yl-vinyl)-1H-indazol-6-ylamino]-phenyl}-amide]
physical and chemical stability ([1]; 60° C. and 40° C./75% RH): physically and chemically stable for at least three months

Compound: Cc1cc(C(=O)Nc2cc(Nc3ccc4c(/C=C/c5ccccn5)n[nH]c4c3)ccc2F)n(C)n1 [Form Ibm-2, 2,5-Dimethyl-2H-pyrazole-3-carboxylic acid {2-fluoro-5-[3-((E)-2-pyridin-2-yl-vinyl)-1H-indazol-6-ylamino]-phenyl}-amide]
conversion of solid form [3]: will convert to Form Ib upon complete hydration

Further lines, results first:

light stability [2]: light-stable
solubility (Aqueous solubility; [4]): ~7 µg/mL (≈ 15 µM)
Compound: Cc1cc(C(=O)Nc2cc(Nc3ccc4c(/C=C/c5ccccn5)n[nH]c4c3)ccc2F)n(C)n1 [Form IV, 2,5-Dimethyl-2H-pyrazole-3-carboxylic acid {2-fluoro-5-[3-((E)-2-pyridin-2-yl-vinyl)-1H-indazol-6-ylamino]-phenyl}-amide]

light stability [2]: light-stable
Compound: Cc1cc(C(=O)Nc2cc(Nc3ccc4c(/C=C/c5ccccn5)n[nH]c4c3)ccc2F)n(C)n1 [Form Ia, 2,5-Dimethyl-2H-pyrazole-3-carboxylic acid {2-fluoro-5-[3-((E)-2-pyridin-2-yl-vinyl)-1H-indazol-6-ylamino]-phenyl}-amide]

light stability [2]: light-stable
solubility (Aqueous solubility; aqueous medium, pH 2, aqueous buffer, pH 2): ~8 µg/mL (≈ 17.1 µM)
aqueous solubility (Aqueous solubility; pH 7.4): about 0.2 μg/mL
Compound: Cc1cc(C(=O)Nc2cc(Nc3ccc4c(/C=C/c5ccccn5)n[nH]c4c3)ccc2F)n(C)n1 [Form V, 2,5-Dimethyl-2H-pyrazole-3-carboxylic acid {2-fluoro-5-[3-((E)-2-pyridin-2-yl-vinyl)-1H-indazol-6-ylamino]-phenyl}-amide]

hygroscopicity [3]: very hygroscopic
conversion of solid form [3]: readily converted back to Form Ib
Compound: Cc1cc(C(=O)Nc2cc(Nc3ccc4c(/C=C/c5ccccn5)n[nH]c4c3)ccc2F)n(C)n1 [Form VI, 2,5-Dimethyl-2H-pyrazole-3-carboxylic acid {2-fluoro-5-[3-((E)-2-pyridin-2-yl-vinyl)-1H-indazol-6-ylamino]-phenyl}-amide]
